For data set [1], the system named is Peritoneal macrophage. As to the kind of experiment: Antiinflammatory activity in C57BL/6J mouse peritoneal macrophages assessed as inhibition of LPS-induced NO production preincubated for 1 hrs followed by LPS-stimulation and measured after 24 hrs by Griess reagent-based assay relative to control. In kind it is functional, cell-based. (The Griess reaction detects nitrite, a stable product of nitric oxide.)

Data set [2] relates to Peritoneal macrophage. Briefly: Antiinflammatory activity in C57BL/6J mouse peritoneal macrophages assessed as inhibition of LPS-induced NO production at 10 uM preincubated for 1 hrs followed by LPS-stimulation and measured after 24 hrs by Griess reagent-based assay relative to control. It counts as functional. The following applies: time 25 hrs.
The test system of data set [3] is Peritoneal macrophage. Briefly: Cytotoxicity against C57BL/6J mouse Peritoneal macrophages assessed as reduction in cell growth incubated for 1 hr. In kind it is cell-based.

Drawing on ChEMBL document CHEMBL4665852, “Hydroxylated Ethacrylic and Tiglic Acid Derivatives from the Stems and Branches of Enkianthus chinensis and Their Potential Anti-inflammatory Activities” (J Nat Prod, 2020), this text covers IC50, inhibition and Activity for two molecules.

For orientation: IC50 means the concentration needed to halve the response being measured. In general, inhibition refers to the relative decrease from the control value, in per cent.

Take `C/C=C(\CO)C(=O)OC/C(=C\CO)C(=O)OC`: the IC50 in data set [1] worked out at 1200 nM. Besides, the inhibition at 10 µM in data set [2] stood at 84.9%. In addition, the Activity result in data set [3] is “Non-Toxic”.

Consider `CC[C@](O)(C(=O)OC/C(=C\CO)C(=O)OC)[C@@H](C)O`, for which the IC50 in data set [1] turned out to be 2900 nM. In addition, in data set [2], the inhibition at 10 µM was found to be 64.3%. In addition, the Activity entry in data set [3] is listed as “Non-Toxic”.
